Results published in patent publication US11779649B2, “Antibodies to PMEL17 and conjugates thereof” (Novartis AG, priority 2018, dated 2023).
Read-outs that look alike come from different tables or passages of the source. Positions of bridges follow the written chain, without caps; N, C: chain ends. Non-standard residues stand in square brackets, D forms with d. Residues, ends and D or L forms follow the SMILES beside them. Leu(3R-O(AcLeu(3R-OH))) = CC(=O)N[C@H](C(=O)O[C@H](C(C)C)[C@H](N)C(=O)O)[C@H](O)C(C)C; NMeT = CN[C@H](C(=O)O)[C@@H](C)O; dPhLac = O=C(O)[C@H](O)Cc1ccccc1; NMeA = CN[C@@H](C)C(=O)O; NMeDha = C=C(NC)C(=O)O

How the values were obtained:
[1] = Stability of Compound (A2), hepatocytes, rat; format: in vitro ADME
Experimental: (§1) In vitro stability of Compound (A2) was tested in plasma and blood from different species (FIG. 5A). […]

92.1 cells = assay: Annexin V flow cytometry apoptosis assay, 92.1 cells; format: cell-based; details: 92.1 and MIAPACA cells, FIG. 2
Experimental: 92.1 and MIAPACA cells were seeded in 96-well plates (5000 cells per well) and treated with increasing concentrations of Compound (A1), Compound (A2), and a fixed dose of Staurosporine (100 nM, positive control) as indicated. Following drug treatment for 96, cells were subjected to fluorescence-activated flow cytometry using an Annexin V antibody conjugated to a fluorescent dye. Data presented as mean of 3 independent replicates.
92.1 cells were seeded in 96-well plates (5000 cells per well) and treated with increasing concentrations of Compound (A1), 3207-(B1) (Isotype control), G4-(B1), and G1-(B1) as indicated. Following drug treatment for 96, cells were subjected to fluorescence-activated flow cytometry using an Annexin V antibody conjugated to a fluorescent dye. Data presented as mean of 3 independent replicates.

92.1 uveal melanoma = assay: Resazurin-based viability assay, 92.1 uveal melanoma cells; format: cell-based
[2] = Stability of Compound (A2), hepatic S9 fraction, rat; format: in vitro ADME
Experimental: as §1

[3] = Stability in buffer at pH 5.6 and in lysosomes; format: in vitro ADME; details: buffer pH 5.6, lysosomes, 4 h, FIG. 5D
Experimental: as §1

[4] = PK of Compound (A2) in female balb/c mice; format: in vivo
Experimental: as §1

[5] = Stability of Compound (A2), hepatic microsomes, rat; format: in vitro ADME; details: intrinsic clearance
Experimental: as §1

[6] = Stability of Compound (A2), plasma, mouse; format: in vitro ADME; details: read-out: Plasma t½ (converted)
Experimental: as §1

[7] = Stability of Compound (A2), plasma, human; format: in vitro ADME; details: read-out: Plasma t½ (converted)
Experimental: as §1

[8] = Stability of Compound (A2), hepatic microsomes, mouse; format: in vitro ADME; details: intrinsic clearance
Experimental: as §1

[9] = Stability of Compound (A2), plasma, rat; format: in vitro ADME; details: read-out: Plasma t½ (converted)
Experimental: as §1

[10] = Stability of Compound (A2), hepatic microsomes, human; format: in vitro ADME; details: intrinsic clearance
Experimental: as §1

[11] = Stability of Compound (A2), hepatic S9 fraction, human; format: in vitro ADME; details: read-out: Hepatic S9 (+/−NADPH) t½ (converted)
Experimental: as §1

GNAQ/11 = assay: IP1 levels by TR-FRET in 92.1 uveal melanoma cells; format: cell-based; details: 92.1 cells, overnight treatment, FIG. 3A
Experimental: (§2) 92.1 uveal melanoma were treated with increasing concentrations of Compound (A1) or Compound (A2) as indicated. Following drug treatment overnight, cells were processed for determination of IP1 levels using TR-FRET (time-resolved fluorescent resonance energy transfer) or protein levels by western-blotting.
92.1 uveal melanoma were treated with DMSO, Compound (A1) (8 nM) and increasing concentrations of Isotype-(B1), anti-PMEL17-(B1) and anti-PMEL17-(B2) ADCs as indicated. Following drug treatment for 2 days, cells were processed for determination of IP1 levels using TR-FRET (time-resolved fluorescent resonance energy transfer). IP1 levels (nM) are presented as mean of 3 independent replicates.

[12] = Chemical stability of Compound (A2) in three different systems; format: physicochemical; details: FIG. 5B
Experimental: as §1

ERK signaling = assay: Western-blotting of 92.1 cells, ERK signaling; format: cell-based; details: FIG. 3C
Experimental: as §2

[13] = tested on: MIAPACA pancreatic ductal adenocarcinoma cells; assay: Resazurin-based viability assay, MIAPACA cells; format: cell-based; details: Homo sapiens, MIA PaCa-2, WT, 96 or 120 hours, Table 4
Experimental: 92.1 uveal melanoma and MIAPACA pancreatic ductal adenocarcinoma cells were seeded at low cell density in 96-well plates and treated with increasing concentrations of Compound (A1) or Compound (A2) as indicated. Following drug treatment for 96 or 120 hours, cell viability and proliferation were determined using a resazurin-based viability assay. Briefly, cells were incubated with a resazurin-based solution and color change was detected by absorbance with a spectrophotometer and used as a readout of cell viability. Data presented as mean of 3 independent replicates and relative to PBS-treated cells (control).

[14] = Stability of Compound (A2), hepatocytes, human; format: in vitro ADME
Experimental: as §1

[15] = Stability of Compound (A2), hepatic S9 fraction, mouse; format: in vitro ADME; details: read-out: Hepatic S9 (+/−NADPH) t½ (converted)
Experimental: as §1

SMILES: C=C1C(=O)N[C@@H](C)C(=O)N(C)[C@@H](C)C(=O)N[C@@H]([C@H](OC(=O)[C@@H](NC(C)=O)[C@H](O)C(C)C)C(C)C)C(=O)N(C)[C@@H]([C@@H](C)OC)C(=O)O[C@H](C)[C@H](NC(C)=O)C(=O)O[C@H](Cc2ccccc2)C(=O)N1C [Compound (A2), (R)-1-((3S,6S,9S,12S,18R,21S,22R)-21-acetamido-18-benzyl-3-((R)-1-methoxyethyl)-4,9,10,12,16,22-hexamethyl-15-methylene-2,5,8,11,14,17,20-heptaoxo-1,19-dioxa-4,7,10,13,16-pentaazacyclodocosan-6-yl)-2-methylpropyl (2S,3R)-2-acetamido-3-hydroxy-4-methylpentanoate] (Ac-T[dPhLac][NMeDha]A[NMeA][Leu(3R-O(AcLeu(3R-OH)))][NMeT](Me); ester 1-C)
- Hepatocytes (ul/min/10^6 cells) [1]: 8 ul/min/10^6 cells
- apoptosis (Annexin V) (92.1 cells): induced apoptosis in UM cells in GNAQ/11 dependent manner
- GI50 (92.1 uveal melanoma; 92.1, GNAQ^Q209L, 96 or 120 hours, Table 4, read-out: GI50): 7.7 nM
- GI50 (92.1 uveal melanoma; 92.1 GNAQ^Q209L, Table 1, read-out: GI50 (nM) 92.1GNAQ^Q209L): 22.1 nM
- anti-UM activity (92.1 uveal melanoma; 92.1 vs MIAPACA, FIG. 1): potent target-dependent anti-UM activity
- half-life ([2]; hepatic S9 fraction, +NADPH, read-out: Hepatic S9 (+/−NADPH) t½): > 2 h
- Hepatic S9 (+/−NADPH) t½ (h) ([2]; −NADPH): >2/>2 h
- stability in buffer and lysosomes [3]: stable in buffer at pH 5.6 and in lysosomes over 4 h
- clearance ([4]; FIG. 5C): high clearance
- elimination half-life ([4]; FIG. 5C): short elimination half-life
- half-life ([4]; mouse, in vivo, 1 mg/kg iv): 0.4 ± 0.01 h
- clearance ([4]; mouse, in vivo, 1 mg/kg iv, read-out: CL): 175 ± 29 mL/min/kg
- Hepatic microsomes [5]: 0.033 mL/min/kg
- half-life [6]: 2.1 h
- half-life [7]: 2 h
- Hepatic microsomes [8]: 0.107 mL/min/kg
- half-life [9]: 4.1 h
- Hepatic microsomes [10]: 0.044 mL/min/kg
- half-life ([11]; +NADPH): 1.9 h
- half-life ([11]; −NADPH): > 2 h
- IP1 levels (GNAQ/11): reduced IP1 levels
- chemical stability [12]: good chemical stability in three different systems
- ERK signaling (immunoblots) (ERK signaling): reduced ERK signaling
- GI50 [13]: > 10000 nM
- Hepatocytes (ul/min/10^6 cells) [14]: <4 ul/min/10^6 cells
- half-life ([15]; +NADPH): 1.9 h
- half-life ([15]; −NADPH): > 2 h
